Measured values: ChEMBL document CHEMBL1151880, “Cytotoxicity and structure-activity relationships of four alpha-N-heterocyclic thiosemicarbazone derivatives crystal structure of 2-acetylpyrazine thiosemicarbazone” (Bioorg Med Chem Lett, 2009)

How the values were obtained:
K562 = test: Antitumor activity against human K562 cells assessed as induction of cell death after 48 hrs by MTT assay; assay type: functional, cell-based; settings: K562, 48 h
Bel-7402 = test: Antitumor activity against human Bel7402 cells assessed as induction of cell death after 48 hrs by MTT assay; assay type: functional, cell-based; settings: Bel-7402, 48 h

Row | Compound | IC50 (K562) | IC50 (Bel-7402)
1 | C/C(=N\N=C(\N)S)c1cnccn1 | 47.5 µM | 238 µM
2 | C/N=C(\S)N/N=C(\C)c1cnccn1 | 25.9 µM | 462 µM
3 | NC(=S)N/N=C(\c1ccccc1)c1ccccn1 | 28.2 µM | 376 µM
4 | CNC(=S)N/N=C(\c1ccccc1)c1ccccn1 | 0.002 µM | 0.138 µM
